# Reference: patent publication US20240277829A1, “HIV-1 VACCINATION AND SAMT-247 MICROBICIDE TO PREVENT HIV-1 INFECTION” (priority 2021, published 2024)
# Legend:
# Type in all cases: cell-based
# [1] = tested on: NKG2A^+ NK cells; experiment: Intracellular cytokines of human blood NK cells using SAMT-247 and PMA stimulation with or without zinc chelator; settings: PMA stimulation with or without SAMT-247, presence of TPEN
# Description: Intracellular cytokines of Human blood NK cells using SAMT-247 and PMA stimulation with or without zinc chelator. The levels of NKG2A^+ NK cells were measured in blood of healthy humans. Human PBMCs were thawed and cultured in R10 in the presence or absence of SAMT-247 and/or PMA for 12 hours. Cells were incubated with or without Zinc chelator TPEN (cat. #P4413-100 MG, 5 μM) for 12 h. Subsequently, PBMCs were surface stained with the following: BUV737 anti-CD3 (SP34-2; cat. #741872, 5 μl), Alexa700 anti-CD20 (2H7; cat. #560631, 5 μl), BV786 anti-CD45 (HI30; cat. #563716, 5 μl) from BD Biosciences; APC-H7 anti-CD11b (ICRF44; cat. #47-0118-42, 5 μl) from eBioscience and PE-Cy7 anti-NKG2A (Z199; cat. #B10246, 5 μl) from Beckman coulter for 30 minutes at room temperature. This was followed by permeabilization with FOX3-transcription buffer set (cat. #00-5523-00) from eBioscience according to the manufacture's recommendation and subsequently intracellular staining with the following: BV750 anti-TNF-α (MAB11; cat. #566359, 5 μl), BUV396 anti-IFN-γ (B27; cat. #563563, 5 μl), BV510 anti-GranB (GB11; cat. #563388, 5 μl) from BD Biosciences; and FITC anti-Perforin (pf-344; cat. #3465-7, 5 μl) from MABTECH for 30 minutes at room temperature. Flow cytometry acquisitions were performed on a FACSymphony A5 and examined using FACSDIVA™ software (BD Biosciences).
# [2] = tested on: NKG2A^+ cells; experiment: Zinc chelation: macaque blood NK cells, SAMT-247 and/or gp120 peptides with or without TPEN; settings: for frequency of IFN-γ^+ NKG2A^+ cells / frequency of TNF-α^+ NKG2A^+ cells: with vs without zinc chelator
# Description: (§1) Zinc chelation: The frequencies and cytokine levels of NK cells, monocytes and T cells were measured in macaque blood. Cryopreserved PBMCs were thawed and cultured in R10 in the presence/or absence of SAMT-247 and/or gp120 peptides for 12 hours. Cells were incubated with or without Zinc chelator TPEN (cat. #P4413-100 MG, 5 μM) for 12 h. Subsequently, cells were stained for live cells with Live/Dead Blue dye (cat. #L34962, 0.5 μl) from Thermofisher; followed by surface staining with the following: Alexa 700 anti-CD3 (SP34-2; cat. #557917, 5 μl), BV711 anti-CD4 (L200; cat. #563913, 5 μl), BB700 anti-CD8 (RPA-T8; cat. #566452, 5 μl), BUV737 anti-CD20 (2H7; cat. #612848, 5 μl), PE anti-CD45 (D058-1283; cat. #552833, 5 μl), BV786 anti-CCR5 (3A9; cat. #565001, 5 μl), BV496 anti-CD16 (3G8; cat. #612944, 5 μl), BUV661 anti-HLA-DR (G46-6; cat. #612980, 5 μl), BUV805 anti-CD14 (M5E2; cat. #565779, 5 μl) from BD Biosciences; APC-H7 anti-CD11b (ICRF44; cat. #47-0118-42, 5 μl), PE-Cy5 anti-CD95 (ICRF44; cat. #15-0959-42, 5 μl) from eBioscience; APC anti-α4β7, provided by the NIH Nonhuman Primate Reagent Resource (R24 OD010976, and NIAID contract HHSN272201300031C); BV605 anti-CCR6 (G034E3; cat. #353420, 5 μl), BV650 anti-CXCR3 (G025H7; cat. #353730, 5 μl), from Biolegend and PE-Cy7 anti-NKG2A (Z199; cat. #B10246, 5 μl) from Beckman coulter for 30 minutes at room temperature. This was followed by permeabilization with a FOX3-transcription buffer set (cat. #00-5523-00) from eBioscience according to the manufacture's recommendation and subsequently intracellular staining with the following: BV750 anti-TNF-α (MAB11; cat. #566359, 5 μl), BUV395 anti-IFN-γ (B27; cat. #563563, 5 μl), BV510 anti-GranB (GB11; cat. #563388, 5 μl), BV421 anti-IL-10 (JES3-9D7; cat. #564053, 5 μl), PE-CF594 anti-Ki67 (B56; cat. #567120, 5 μl) from BD Biosciences and FITC anti-Perforin (pf-344; cat. #3465-7, 5 μl) from MABTECH for 30 minutes at room temperature. Flow cytometry acquisitions were performed on a FACSYMPHONY™ A5 and examined using FACSDIVA™ software (BD Biosciences).
# [3] = tested on: CD14^+ monocytes; experiment: Zinc chelation: macaque blood monocytes, SAMT-247 and/or gp120 peptides with or without TPEN
# Description: as §1
# [4] = tested on: Th1 and Th2 cells; experiment: Zinc chelation: macaque blood T cells, SAMT-247 and/or gp120 peptides with or without TPEN; settings: for frequency of IFN-γ^+ Th1^+ cells / frequency of IFN-γ^+ Th1^+CCR5^+α4β7^+ cells / frequency of IFN-γ^+ Th1^+CCR5^−α4β7^− cells / frequency of IFN-γ^+ Th2^+ cells / frequency of IFN-γ^+ Th2^+CCR5^+α4β7^+ cells / frequency of IFN-γ^+ Th2^+CCR5^−α4β7^− cells / frequency of IL-10^+ Th1^+ cells / frequency of IL-10^+ Th1^+CCR5^+α4β7^+ cells / frequency of IL-10^+ Th1^+CCR5^−α4β7^− cells / frequency of IL-10^+ Th2^+ cells / frequency of IL-10^+ Th2^+CCR5^+α4β7^+ cells / frequency of IL-10^+ Th2^+CCR5^−α4β7^− cells / frequency of TNF-α^+ Th1^+ cells / frequency of TNF-α^+ Th1^+CCR5^+α4β7^+ cells / frequency of TNF-α^+ Th1^+CCR5^−α4β7^− cells / frequency of TNF-α^+ Th2^+ cells / frequency of TNF-α^+ Th2^+CCR5^+α4β7^+ cells: with vs without zinc chelator
# Description: as §1
# [5] = tested on: human NK cells; experiment: Zinc intensity by confocal microscopy
# Description: Zinc intensity. NKG2A^+ NK cells were isolated from cryopreserved healthy human PBMCs. NK cells were labeled with APC anti-NKG2A (Z199, cat. #A60797) from Beckman coulter, followed by separation with APC MicroBeads (#130-090-855, Miltenyi Biotec Inc.) using manufacturer instructions. Subsequently NK cells were cultured in the presence or absence of SAMT-247 and/or PMA stimulation for 7 hours. Cells were plated on ibidi chamber slides. Cells were washed and treated with zinc chelator or remained untreated for 30 minutes according to the manufacturers' recommendation using a cell-based Zinc assay kit (cat. #ab241014, Abcam). Subsequently cells were washed and stained with Zinc probe-green (cat. #ab241014, Abcam) and DAPI (Molecular Probes, Waltham, MA, USA) was used to visualize nuclei. Signals were visualized with a confocal laser-scanning microscope (Leica SP8, Buffalo Grove, IL, USA). Image processing was performed using the Imaris 9.2.1 software.
# [6] = gp120 pooled peptide + SAMT-247
# [7] = SAMT-247, with vs without zinc chelator
# [8] = gp120 pooled peptide + SAMT-247, with vs without zinc chelator
# [9] = gp120 pooled peptide, with vs without zinc chelator
# [10] = gp120 pooled peptides ± SAMT-247, TPEN treatment
smiles,measurement,setting,value
"c1ccc(CN(CCN(Cc2ccccn2)Cc2ccccn2)Cc2ccccn2)nc1 [Zinc chelator, N, N,N′,N′ tetrakis-(2-pyridyl-methyl) ethylendiamine]",IFN-γ and TNF-α expression in human NKG2A^+ cells,[1],significantly reduced
same,IFN-γ and TNF-α expression in NKG2A^+ cells,"[2]; gp120 peptide and gp120 peptide/SAMT-247 treated cells, TPEN",significantly decreased
same,SAMT-247's ability to increase granzyme B and perforin in NKG2A^+ cells,"[2]; gp120 peptide stimulation, presence of TPEN",No significant changes
same,frequency of IFN-γ^+ NKG2A^+ cells,[2]; [6],↓
same,frequency of TNF-α^+ NKG2A^+ cells,[2]; [6],↓
same,frequency of IFN-γ^+ NKG2A^+ cells,[2]; gp120 pooled peptide,↓
same,frequency of TNF-α^+ NKG2A^+ cells,[2]; gp120 pooled peptide,↓
same,frequency of CD14^+ cells,[3]; [7],↓
same,frequency of IL-10^+ CD14^+ cells,[3]; [7],↓
same,frequency of CD14^+ cells,[3]; [8],↓
same,frequency of IL-10^+ CD14^+ cells,[3]; [8],↓
same,frequency of CD14^+ cells,[3]; [9],↓
same,frequency of IL-10^+ CD14^+ cells,[3]; [9],↓
same,IL-10 production by CD14^+ cells,[3]; [10],decreased
same,frequency of CD14^+ cells,[3]; [10],decreased
same,frequency of IFN-γ^+ Th1^+ cells,[4]; SAMT-247,↓
same,frequency of IFN-γ^+ Th1^+CCR5^+α4β7^+ cells,[4]; SAMT-247,↓
same,frequency of IFN-γ^+ Th1^+CCR5^−α4β7^− cells,[4]; SAMT-247,↓
same,frequency of IFN-γ^+ Th2^+ cells,[4]; SAMT-247,↓
same,frequency of IFN-γ^+ Th2^+CCR5^+α4β7^+ cells,[4]; SAMT-247,↓
same,frequency of IFN-γ^+ Th2^+CCR5^−α4β7^− cells,[4]; SAMT-247,↓
same,frequency of IL-10^+ Th1^+ cells,[4]; SAMT-247,↓
same,frequency of IL-10^+ Th1^+CCR5^+α4β7^+ cells,[4]; SAMT-247,↓
same,frequency of IL-10^+ Th1^+CCR5^−α4β7^− cells,[4]; SAMT-247,↓
same,frequency of IL-10^+ Th2^+ cells,[4]; SAMT-247,↓
same,frequency of IL-10^+ Th2^+CCR5^+α4β7^+ cells,[4]; SAMT-247,↓
same,frequency of IL-10^+ Th2^+CCR5^−α4β7^− cells,[4]; SAMT-247,↓
same,frequency of TNF-α^+ Th1^+ cells,[4]; SAMT-247,↓
same,frequency of TNF-α^+ Th1^+CCR5^+α4β7^+ cells,[4]; SAMT-247,↓
same,frequency of TNF-α^+ Th1^+CCR5^−α4β7^− cells,[4]; SAMT-247,↓
same,frequency of TNF-α^+ Th2^+ cells,[4]; SAMT-247,↓
same,frequency of TNF-α^+ Th2^+CCR5^+α4β7^+ cells,[4]; SAMT-247,↓
same,INF-γ and IL-10 production in Th2 CCR5^−α4β7^− cells,[4]; TPEN,decreased
same,frequency of IFN-γ^+ Th1^+CCR5^+α4β7^+ cells,[4]; Unstim,↓
same,frequency of IL-10^+ Th1^+CCR5^+α4β7^+ cells,[4]; Unstim,↓
same,frequency of IL-10^+ Th1^+CCR5^−α4β7^− cells,[4]; Unstim,↓
same,frequency of IL-10^+ Th2^+CCR5^+α4β7^+ cells,[4]; Unstim,↓
same,frequency of TNF-α^+ Th2^+CCR5^+α4β7^+ cells,[4]; Unstim,↓
same,frequency of IFN-γ^+ Th1^+ cells,[4]; [6],↓
same,frequency of IFN-γ^+ Th1^+CCR5^+α4β7^+ cells,[4]; [6],↓
same,frequency of IFN-γ^+ Th1^+CCR5^−α4β7^− cells,[4]; [6],↓
same,frequency of IFN-γ^+ Th2^+ cells,[4]; [6],↓
same,frequency of IFN-γ^+ Th2^+CCR5^+α4β7^+ cells,[4]; [6],↓
same,frequency of IFN-γ^+ Th2^+CCR5^−α4β7^− cells,[4]; [6],↓
same,frequency of IL-10^+ Th1^+ cells,[4]; [6],↓
same,frequency of IL-10^+ Th1^+CCR5^+α4β7^+ cells,[4]; [6],↓
same,frequency of IL-10^+ Th1^+CCR5^−α4β7^− cells,[4]; [6],↓
same,frequency of IL-10^+ Th2^+ cells,[4]; [6],↓
same,frequency of IL-10^+ Th2^+CCR5^+α4β7^+ cells,[4]; [6],↓
same,frequency of IL-10^+ Th2^+CCR5^−α4β7^− cells,[4]; [6],↓
same,frequency of TNF-α^+ Th1^+CCR5^−α4β7^− cells,[4]; [6],↓
same,frequency of TNF-α^+ Th2^+ cells,[4]; [6],↓
same,frequency of TNF-α^+ Th2^+CCR5^+α4β7^+ cells,[4]; [6],↓
same,frequency of IFN-γ^+ Th1^+CCR5^+α4β7^+ cells,[4]; gp120 pooled peptide,↓
same,frequency of IFN-γ^+ Th1^+CCR5^−α4β7^− cells,[4]; gp120 pooled peptide,↓
same,frequency of IFN-γ^+ Th2^+ cells,[4]; gp120 pooled peptide,↓
same,frequency of IFN-γ^+ Th2^+CCR5^+α4β7^+ cells,[4]; gp120 pooled peptide,↓
same,frequency of IL-10^+ Th1^+CCR5^+α4β7^+ cells,[4]; gp120 pooled peptide,↓
same,frequency of IL-10^+ Th1^+CCR5^−α4β7^− cells,[4]; gp120 pooled peptide,↓
same,frequency of IL-10^+ Th2^+CCR5^+α4β7^+ cells,[4]; gp120 pooled peptide,↓
same,frequency of IL-10^+ Th2^+CCR5^−α4β7^− cells,[4]; gp120 pooled peptide,↓
same,frequency of TNF-α^+ Th1^+ cells,[4]; gp120 pooled peptide,↓
same,frequency of TNF-α^+ Th1^+CCR5^+α4β7^+ cells,[4]; gp120 pooled peptide,↓
same,frequency of TNF-α^+ Th2^+CCR5^+α4β7^+ cells,[4]; gp120 pooled peptide,↓
same,percentage of CCR5^+α4β7^+ Th1 and Th2 cells,"[4]; week 17, gp120 pooled peptides ± SAMT-247, TPEN",decreased percentage
same,number of Th1 CCR5^−α4β7^− cells,"[4]; week 17, gp120 pooled peptides ± SAMT-247, Zn chelation",decreased
same,zinc intensity of PMA+SAMT-247 stimulated cells vs not treated with chelator,[5],significantly lower
